Test results taken from ChEMBL document CHEMBL5465560, “Selectivity Literature for EUbOPEN Chemogenomic Library” (2024).

Experiments:
[1] = biological target: Mitogen-activated protein kinase 8 (Homo sapiens, UniProt P45983); assay: Selectivity interaction (Kinase panel (KiNativ target engagement assay in Jurkat cells)) EUB0001635a MAPK8; assay type: cell-based; conditions: at 1 µM
[2] = biological target: Ribosomal protein S6 kinase alpha-1 (Homo sapiens, UniProt Q15418); assay: Selectivity interaction (Kinase panel (KiNativ target engagement assay in Jurkat cells)) EUB0001635a RPS6KA1; assay type: cell-based; conditions: Selectivity number of off-targets 0.0, Selectivity number of targets 233.0, Source Knowledge https://www.sciencedirect.com/science/article/pii/S2451945619300674?via%3Dihub, at 1 µM
[3] = biological target: Serine/threonine-protein kinase Nek4 (Homo sapiens) (UniProt P51957); assay: Selectivity interaction (Kinase panel (KiNativ target engagement assay in Jurkat cells)) EUB0001635a NEK4; assay type: cell-based; conditions: at 1 µM
[4] = biological target: Calcium/calmodulin-dependent protein kinase type 1G (Homo sapiens) (UniProt Q96NX5); assay: Selectivity interaction (KinomeScan (DiscoverX)) EUB0000229b CAMK1G; conditions: at 10 µM
[5] = biological target: Tyrosine-protein kinase Srms (Homo sapiens) (UniProt Q9H3Y6); assay: Selectivity interaction (KinomeScan (DiscoverX)) EUB0000229b SRMS; conditions: at 10 µM
[6] = biological target: LIM domain kinase 1 (Homo sapiens) (UniProt P53667); assay: Selectivity interaction (KinomeScan (DiscoverX)) EUB0000229b LIMK1; conditions: at 10 µM
Chain of LIM domain kinase 1 (Homo sapiens) (P53667 whole entry, looked up, the tested form may be a part): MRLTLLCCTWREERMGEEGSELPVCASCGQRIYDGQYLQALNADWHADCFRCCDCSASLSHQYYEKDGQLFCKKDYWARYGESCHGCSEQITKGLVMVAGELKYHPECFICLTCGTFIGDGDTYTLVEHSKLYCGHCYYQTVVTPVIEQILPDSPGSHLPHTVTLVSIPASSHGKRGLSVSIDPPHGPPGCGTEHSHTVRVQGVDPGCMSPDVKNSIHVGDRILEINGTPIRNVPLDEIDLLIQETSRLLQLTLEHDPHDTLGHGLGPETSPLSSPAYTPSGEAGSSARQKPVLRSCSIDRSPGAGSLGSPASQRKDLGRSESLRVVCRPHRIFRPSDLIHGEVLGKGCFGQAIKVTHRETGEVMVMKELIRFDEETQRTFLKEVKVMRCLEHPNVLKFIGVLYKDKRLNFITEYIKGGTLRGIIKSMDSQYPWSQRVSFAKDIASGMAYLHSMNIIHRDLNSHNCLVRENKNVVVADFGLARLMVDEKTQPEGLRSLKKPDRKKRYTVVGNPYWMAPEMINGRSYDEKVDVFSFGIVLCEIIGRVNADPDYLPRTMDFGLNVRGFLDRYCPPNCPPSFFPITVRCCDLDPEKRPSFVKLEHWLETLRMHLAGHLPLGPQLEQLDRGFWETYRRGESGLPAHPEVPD

[7] = biological target: Vascular endothelial growth factor receptor 1 (Homo sapiens) (UniProt P17948); conditions: at 10 µM
Chain of Vascular endothelial growth factor receptor 1 (Homo sapiens) (P17948 whole entry): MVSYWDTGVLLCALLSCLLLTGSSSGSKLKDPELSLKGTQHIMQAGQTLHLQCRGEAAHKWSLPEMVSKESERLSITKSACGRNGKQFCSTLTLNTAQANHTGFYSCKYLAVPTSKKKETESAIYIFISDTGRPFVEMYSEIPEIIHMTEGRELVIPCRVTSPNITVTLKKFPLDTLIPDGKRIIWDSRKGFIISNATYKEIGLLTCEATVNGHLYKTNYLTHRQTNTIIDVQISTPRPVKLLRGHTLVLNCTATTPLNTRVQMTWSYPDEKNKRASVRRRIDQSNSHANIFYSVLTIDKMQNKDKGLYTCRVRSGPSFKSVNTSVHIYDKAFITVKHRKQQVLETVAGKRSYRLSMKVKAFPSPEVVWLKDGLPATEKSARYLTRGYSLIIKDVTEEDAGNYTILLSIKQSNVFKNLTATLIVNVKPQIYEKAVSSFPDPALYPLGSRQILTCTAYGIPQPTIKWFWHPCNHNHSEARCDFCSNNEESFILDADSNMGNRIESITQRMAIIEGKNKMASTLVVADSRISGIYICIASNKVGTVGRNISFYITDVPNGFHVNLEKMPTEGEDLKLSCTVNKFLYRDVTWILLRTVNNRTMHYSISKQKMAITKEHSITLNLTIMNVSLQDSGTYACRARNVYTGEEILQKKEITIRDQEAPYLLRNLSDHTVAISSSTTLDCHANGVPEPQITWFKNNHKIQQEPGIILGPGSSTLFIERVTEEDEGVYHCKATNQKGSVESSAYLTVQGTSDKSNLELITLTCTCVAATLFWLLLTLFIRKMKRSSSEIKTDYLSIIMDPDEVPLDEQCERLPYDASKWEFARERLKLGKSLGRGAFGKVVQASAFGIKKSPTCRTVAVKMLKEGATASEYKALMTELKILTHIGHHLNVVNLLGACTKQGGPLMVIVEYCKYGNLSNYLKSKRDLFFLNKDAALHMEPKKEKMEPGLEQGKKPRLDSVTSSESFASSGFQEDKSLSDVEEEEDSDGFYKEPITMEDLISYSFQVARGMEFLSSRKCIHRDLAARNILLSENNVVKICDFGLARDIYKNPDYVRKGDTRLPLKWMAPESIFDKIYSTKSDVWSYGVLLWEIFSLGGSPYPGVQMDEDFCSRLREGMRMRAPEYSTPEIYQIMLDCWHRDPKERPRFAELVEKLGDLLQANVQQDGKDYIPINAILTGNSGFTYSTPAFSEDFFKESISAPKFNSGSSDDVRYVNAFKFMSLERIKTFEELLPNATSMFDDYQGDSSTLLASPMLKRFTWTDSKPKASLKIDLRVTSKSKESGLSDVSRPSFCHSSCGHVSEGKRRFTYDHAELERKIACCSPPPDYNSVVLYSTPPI

[8] = biological target: Dual specificity tyrosine-phosphorylation-regulated kinase 1A (Homo sapiens, UniProt Q13627); assay: Selectivity interaction (Kinase panel (DSF assay)) EUB0001559a DYRK1A
[9] = biological target: Serine/threonine-protein kinase SBK1 (Homo sapiens) (UniProt Q52WX2); assay: Selectivity interaction (KinomeScan (DiscoverX)) EUB0000045b SBK1
Chain of Serine/threonine-protein kinase SBK1 (Homo sapiens) (Q52WX2 whole entry): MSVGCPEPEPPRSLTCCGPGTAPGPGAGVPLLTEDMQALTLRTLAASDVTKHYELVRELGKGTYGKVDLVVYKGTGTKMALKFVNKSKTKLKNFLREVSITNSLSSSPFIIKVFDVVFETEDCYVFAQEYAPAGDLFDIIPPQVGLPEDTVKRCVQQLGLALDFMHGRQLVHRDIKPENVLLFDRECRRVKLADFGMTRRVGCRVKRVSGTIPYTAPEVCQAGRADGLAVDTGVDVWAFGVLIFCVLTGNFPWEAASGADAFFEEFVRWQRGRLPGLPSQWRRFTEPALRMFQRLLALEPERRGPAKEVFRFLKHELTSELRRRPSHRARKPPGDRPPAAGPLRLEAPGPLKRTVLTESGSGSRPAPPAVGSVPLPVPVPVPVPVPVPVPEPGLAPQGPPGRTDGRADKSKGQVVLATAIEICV

[10] = system: Tyrosine-protein kinase ABL1 (Homo sapiens), P00519 [H396P]; assay: Selectivity interaction (KinomeScan (DiscoverX)) EUB0000045b ABL1; conditions: at 1 µM
[11] = biological target: T1, Inhibitor of nuclear factor kappa-B kinase subunit beta (Homo sapiens) (UniProt O14920)
T1 sequence (whole entry): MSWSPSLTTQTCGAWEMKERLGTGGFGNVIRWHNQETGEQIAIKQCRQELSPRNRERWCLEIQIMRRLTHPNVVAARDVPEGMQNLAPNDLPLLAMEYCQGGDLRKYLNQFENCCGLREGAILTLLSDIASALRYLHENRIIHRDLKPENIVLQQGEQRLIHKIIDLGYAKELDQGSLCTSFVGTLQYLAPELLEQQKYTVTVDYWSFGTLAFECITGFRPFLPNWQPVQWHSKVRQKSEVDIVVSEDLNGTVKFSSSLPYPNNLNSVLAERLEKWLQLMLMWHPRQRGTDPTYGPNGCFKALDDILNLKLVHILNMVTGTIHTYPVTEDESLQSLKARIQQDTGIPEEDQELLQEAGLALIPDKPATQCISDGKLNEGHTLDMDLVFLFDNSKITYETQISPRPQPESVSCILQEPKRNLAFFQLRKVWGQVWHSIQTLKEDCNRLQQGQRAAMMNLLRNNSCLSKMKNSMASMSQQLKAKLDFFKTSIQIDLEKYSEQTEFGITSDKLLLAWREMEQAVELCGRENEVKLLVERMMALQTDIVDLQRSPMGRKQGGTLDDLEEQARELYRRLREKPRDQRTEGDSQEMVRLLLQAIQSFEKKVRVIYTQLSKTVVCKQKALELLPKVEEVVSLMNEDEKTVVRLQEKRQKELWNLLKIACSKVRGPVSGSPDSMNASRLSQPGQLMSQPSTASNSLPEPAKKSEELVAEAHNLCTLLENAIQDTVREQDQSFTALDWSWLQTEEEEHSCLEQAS

[12] = biological target: Histamine H3 receptor (Homo sapiens, UniProt Q9Y5N1); assay: Selectivity interaction (Eurofins CEREP Diversity Profile (receptors and ion channels)) EUB0000279b HRH3; conditions: at 10 µM
[13] = biological target: Tyrosine-protein kinase JAK1 (Homo sapiens, UniProt P23458); assay: Selectivity interaction (ProQinase) EUB0000171b JAK1
Chain of Tyrosine-protein kinase JAK1 (P23458 whole entry): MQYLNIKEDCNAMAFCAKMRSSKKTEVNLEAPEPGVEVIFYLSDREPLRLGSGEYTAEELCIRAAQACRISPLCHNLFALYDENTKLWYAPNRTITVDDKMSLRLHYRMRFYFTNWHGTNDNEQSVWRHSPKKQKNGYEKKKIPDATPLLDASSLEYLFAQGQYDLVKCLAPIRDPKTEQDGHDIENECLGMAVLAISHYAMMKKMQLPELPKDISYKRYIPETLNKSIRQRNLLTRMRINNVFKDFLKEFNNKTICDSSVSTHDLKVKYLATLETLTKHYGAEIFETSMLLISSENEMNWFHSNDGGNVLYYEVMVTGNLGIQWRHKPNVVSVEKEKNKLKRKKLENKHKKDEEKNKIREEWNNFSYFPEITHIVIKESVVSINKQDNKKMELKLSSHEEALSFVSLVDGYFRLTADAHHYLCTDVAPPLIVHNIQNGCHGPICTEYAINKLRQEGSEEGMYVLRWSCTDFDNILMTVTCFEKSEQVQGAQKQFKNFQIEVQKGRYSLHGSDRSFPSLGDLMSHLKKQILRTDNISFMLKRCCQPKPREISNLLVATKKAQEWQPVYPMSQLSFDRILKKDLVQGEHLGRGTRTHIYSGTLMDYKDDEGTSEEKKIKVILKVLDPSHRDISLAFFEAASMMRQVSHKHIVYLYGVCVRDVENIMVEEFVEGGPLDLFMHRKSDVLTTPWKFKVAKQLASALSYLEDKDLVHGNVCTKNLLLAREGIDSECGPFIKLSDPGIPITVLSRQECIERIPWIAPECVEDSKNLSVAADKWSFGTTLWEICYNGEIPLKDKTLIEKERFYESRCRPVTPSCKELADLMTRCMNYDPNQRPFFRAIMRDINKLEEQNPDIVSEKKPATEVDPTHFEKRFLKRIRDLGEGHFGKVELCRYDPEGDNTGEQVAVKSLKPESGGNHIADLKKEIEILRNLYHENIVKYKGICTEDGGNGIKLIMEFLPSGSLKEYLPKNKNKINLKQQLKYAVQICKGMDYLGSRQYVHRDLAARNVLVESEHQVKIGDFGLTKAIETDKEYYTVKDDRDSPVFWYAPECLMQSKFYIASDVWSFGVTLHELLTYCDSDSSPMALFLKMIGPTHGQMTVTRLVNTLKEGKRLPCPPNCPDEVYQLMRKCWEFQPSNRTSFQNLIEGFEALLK

[14] = biological target: Serine/threonine-protein kinase 25 (Homo sapiens) (UniProt O00506); assay: Selectivity interaction (ActivX KiNativ screen (ex vivo kinase selectivity in human PBMCs)) EUB0001619a STK25; assay type: cell-based; conditions: PBMC, at 1 µM
Chain of Serine/threonine-protein kinase 25 (Homo sapiens) (O00506 whole entry, looked up): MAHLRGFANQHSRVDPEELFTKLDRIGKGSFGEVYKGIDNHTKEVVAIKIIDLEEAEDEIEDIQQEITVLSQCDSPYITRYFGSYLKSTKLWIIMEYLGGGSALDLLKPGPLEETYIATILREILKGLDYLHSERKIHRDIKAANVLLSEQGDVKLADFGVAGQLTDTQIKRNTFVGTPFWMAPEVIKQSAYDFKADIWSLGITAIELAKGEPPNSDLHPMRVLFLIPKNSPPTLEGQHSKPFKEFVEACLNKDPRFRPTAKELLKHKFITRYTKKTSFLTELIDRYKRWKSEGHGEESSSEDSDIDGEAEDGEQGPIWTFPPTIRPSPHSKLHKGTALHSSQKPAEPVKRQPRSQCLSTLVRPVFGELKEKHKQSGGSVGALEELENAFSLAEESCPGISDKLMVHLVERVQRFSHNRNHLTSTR

[15] = biological target: Calcium/calmodulin-dependent protein kinase type II subunit gamma (Homo sapiens) (UniProt Q13555); assay: Selectivity interaction (KinomeScan (DiscoverX)) EUB0001619a CAMK2G; conditions: at 1 µM
Chain of Calcium/calmodulin-dependent protein kinase type II subunit gamma (Homo sapiens) (Q13555 whole entry): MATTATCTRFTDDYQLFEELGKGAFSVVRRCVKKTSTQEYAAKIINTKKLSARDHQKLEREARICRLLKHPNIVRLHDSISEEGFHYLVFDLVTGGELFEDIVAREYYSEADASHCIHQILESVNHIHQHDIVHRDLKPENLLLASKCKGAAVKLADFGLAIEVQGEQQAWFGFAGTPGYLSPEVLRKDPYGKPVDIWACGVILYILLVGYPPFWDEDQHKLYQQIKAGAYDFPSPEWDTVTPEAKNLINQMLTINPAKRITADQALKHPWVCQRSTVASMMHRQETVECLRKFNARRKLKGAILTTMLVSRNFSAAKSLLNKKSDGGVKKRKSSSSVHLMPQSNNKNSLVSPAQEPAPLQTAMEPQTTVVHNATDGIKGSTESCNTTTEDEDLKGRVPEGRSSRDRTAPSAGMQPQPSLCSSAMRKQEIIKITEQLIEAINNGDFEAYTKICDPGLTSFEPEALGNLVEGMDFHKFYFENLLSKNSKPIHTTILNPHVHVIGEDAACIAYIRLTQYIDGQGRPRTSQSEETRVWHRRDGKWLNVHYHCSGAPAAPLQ

[16] = biological target: Maternal embryonic leucine zipper kinase (Homo sapiens) (UniProt Q14680); assay: Selectivity interaction (KinomeScan (DiscoverX)) EUB0000607a MELK; conditions: at 10 µM
[17] = biological target: Platelet-derived growth factor receptor beta (Homo sapiens, UniProt P09619); assay: Selectivity interaction (Kinase panel (Invitrogen)) EUB0000639a PDGFRB; conditions: at 200 nM
[18] = biological target: Tyrosine-protein kinase FRK (Homo sapiens) (UniProt P42685); assay: Selectivity interaction (KinomeScan (DiscoverX)) EUB0000655a FRK; conditions: at 10 µM
Chain of Tyrosine-protein kinase FRK (Homo sapiens) (P42685 whole entry): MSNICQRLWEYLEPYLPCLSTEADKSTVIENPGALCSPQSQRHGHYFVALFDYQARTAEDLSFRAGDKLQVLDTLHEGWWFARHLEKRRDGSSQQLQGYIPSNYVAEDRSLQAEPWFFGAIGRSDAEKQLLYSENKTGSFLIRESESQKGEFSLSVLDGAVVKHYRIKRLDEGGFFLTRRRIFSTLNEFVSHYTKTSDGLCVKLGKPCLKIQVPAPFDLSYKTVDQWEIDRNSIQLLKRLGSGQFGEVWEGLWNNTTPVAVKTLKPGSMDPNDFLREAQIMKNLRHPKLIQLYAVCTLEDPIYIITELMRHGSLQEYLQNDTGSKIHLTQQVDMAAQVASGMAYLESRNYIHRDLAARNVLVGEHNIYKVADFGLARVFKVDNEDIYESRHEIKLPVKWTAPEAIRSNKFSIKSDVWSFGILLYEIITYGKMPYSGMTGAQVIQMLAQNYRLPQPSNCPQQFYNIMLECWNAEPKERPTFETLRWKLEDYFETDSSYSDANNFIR

[19] = biological target: Fibroblast growth factor receptor 4 (Homo sapiens, UniProt P22455); assay: Selectivity interaction (KinomeScan (DiscoverX)) EUB0000655a FGFR4; conditions: at 10 µM
[20] = biological target: Cyclin-dependent kinase 16 (Homo sapiens) (UniProt Q00536); conditions: at 10 µM
[21] = system: Tyrosine-protein kinase ABL1 (Homo sapiens), P00519 [Q252H]; assay: Selectivity interaction (Ambit KINOMEscan and KiNATiv profiling in Jurkat cells) EUB0000090b ABL1; assay type: cell-based; conditions: at 1 µM

`C=CC(=O)Nc1ccc(C(=O)Nc2[nH]nc3c2CN(C(=O)N[C@H](CN(C)C)c2ccccc2)C3(C)C)cc1` gave a % of engagement [1] of -7.2%, a % of engagement [2] of -0.1% and a % of engagement [3] of 0.8%.

`COc1cc(N(C)c2ccnc3ccc(C(F)(F)F)cc23)cc(OC)c1OC` was tested, and the % binding [4] was 95%, the % binding [5] was 60% and the % binding [6] was 89%.

`COCC(=O)NC/C=C/c1ccc2ncnc(Nc3ccc(Oc4ccc(C)nc4)c(C)c3)c2c1` [CP-724714] showed a % of control [7] of 88%.

Work on `CN(C(=O)c1cnn2cccnc12)c1cc2c(cc1N1CCOCC1)C(=O)N(C[C@@H](F)C(C)(C)O)C2` yielded a dTM [8] of -0.3 K.

For `C=CC(=O)Nc1cc(-n2c(=O)ccc3cnc4ccc(-c5ccc(NS(C)(=O)=O)cc5)cc4c32)ccc1C`, the % of control ([9]; at 1 µM) was 4.6%, the % of control ([9]; at 10 µM) was 100% and the % of control [10] was 74%.

`Cc1cnc(Nc2ccc(F)cc2Cl)nc1-c1c[nH]c(C(=O)N[C@H](CO)c2cccc(Cl)c2)c1` gave a % of inhibition [11] of 8%.

`CC(=O)c1cc(-c2ccccc2OCC2CC2)c2ncccn12` showed a % of control [12] of 105%.

`C=CC(=O)Nc1cccc(C(=O)Nc2ccc(Nc3cc(-c4[nH]c(SC)nc4C)ccn3)cc2)c1` was tested, and the % of control ([13]; at 1 µM) was 98% and the % of control ([13]; at 5 µM) was 96%.

For `N#Cc1cccc(-c2c[nH]c3ncnc(N4CCOCC4)c23)c1`, the % of inhibition [14] was 61% and the % of control [15] was 100%.

In the case of `CNC(=O)Nc1ccc(-c2nc(N3CC4CCC(C3)O4)c3cnn(C4CCC5(CC4)OCCO5)c3n2)cc1`, the % of control [16] is reported as 92%.

`CC[C@@H]1[C@H](F)C(=O)N[C@@H]1COc1nccc2cc(C(N)=O)c(OC)cc12` [ZIMLOVISERTIB] showed a % of inhibition [17] of -2.22%.

With `CN(C)CCOc1ccc(-c2nc(-c3ccncc3)c(-c3ccc4c(c3)CC/C4=N\O)[nH]2)cc1` the % of control [18] was 96% and the % of control [19] was 100%.

In the case of `CCN(CC)CCCCNc1ncc2cc(-c3cc(OC)cc(OC)c3)c(NC(=O)NC(C)(C)C)nc2n1`, the % of control [20] is reported as 100%.

For `CN(C)C/C=C/C(=O)Nc1ccc(C(=O)N2CCCC(Nc3ncc(Cl)c(-c4c[nH]c5ccccc45)n3)C2)cc1` (stereo not drawn), the % of control [21] was 100%.
